# Data from patent US10314775B2, “Methods of increasing hair growth and improving hair appearance” (MyMD Pharmaceuticals, Inc., priority 2016, dated 2019).
# Legend:
# MAO-B = molecular target: T1, MAO-B (Homo sapiens, UniProt P27338); experiment: MAO-Glo luminescent assay, MAO-B inhibition; format: biochemical; conditions: FIG. 2; compared with myosmine, anatabine, anabasine, nornicotine
# T1 construct: purchased
# T1 sequence (P27338 1-520): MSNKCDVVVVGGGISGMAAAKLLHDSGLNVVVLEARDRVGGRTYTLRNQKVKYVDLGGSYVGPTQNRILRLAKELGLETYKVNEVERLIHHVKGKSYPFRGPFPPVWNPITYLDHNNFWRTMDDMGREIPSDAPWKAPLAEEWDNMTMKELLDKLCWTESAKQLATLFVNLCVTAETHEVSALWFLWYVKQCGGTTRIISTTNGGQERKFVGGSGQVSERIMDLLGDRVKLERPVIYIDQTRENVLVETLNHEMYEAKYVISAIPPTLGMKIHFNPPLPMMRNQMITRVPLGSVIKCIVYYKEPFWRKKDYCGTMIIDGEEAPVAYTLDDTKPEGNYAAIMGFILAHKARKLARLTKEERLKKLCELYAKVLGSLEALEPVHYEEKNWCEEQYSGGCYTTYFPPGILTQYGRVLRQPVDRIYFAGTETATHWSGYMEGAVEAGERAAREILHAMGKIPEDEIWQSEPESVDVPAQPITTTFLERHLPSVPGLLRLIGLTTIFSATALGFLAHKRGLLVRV
# Text: (§1) This example describes experiments for determining monoamine oxidase (MAO) inhibition for isomyosmine and other alkaloids. MAOs are enzymes located on the outer membrane of mitochondria and are involved in the catabolism of monoamine neurotransmitters. There are two well-characterized isoenzymes: MAO-A, which predominantly catabolizes serotonin and norepinephrine, and MAO-B, which preferentially catabolizes benzylamine and phenylethylamine. Dopamine and tyramine are metabolized by both isoforms.
# To detect the activity of MAO, a luminescent method (MAO-Glo Assay kit, from Promega, Cat # V1401) was used. In this method, a MAO substrate (a derivative of beetle luciferin provided in the kit) is mixed with the compound to be tested (in this case, myosmine and control compounds). Then, the MAO enzymes (either A or B, purchased separately) are added to the mixture and incubated with the reaction for 1 hour at room temperature. The MAO enzymes, if not inhibited by the test compound, will convert the substrate into methyl ester luciferin. Finally, a luciferin detection reagent (provided by the kit) is added (20 minutes at room temperature) to stop the MAO reaction and convert methyl ester luciferin into D-luciferin. […] The luminescent signal is measured and recorded using a luminometer. […]
# MAO-A = molecular target: T2, MAO-A (Homo sapiens, UniProt P21397); experiment: MAO-Glo luminescent assay, MAO-A inhibition; format: biochemical; conditions: FIG. 1
# T2 construct: purchased
# T2 sequence (P21397 1-527): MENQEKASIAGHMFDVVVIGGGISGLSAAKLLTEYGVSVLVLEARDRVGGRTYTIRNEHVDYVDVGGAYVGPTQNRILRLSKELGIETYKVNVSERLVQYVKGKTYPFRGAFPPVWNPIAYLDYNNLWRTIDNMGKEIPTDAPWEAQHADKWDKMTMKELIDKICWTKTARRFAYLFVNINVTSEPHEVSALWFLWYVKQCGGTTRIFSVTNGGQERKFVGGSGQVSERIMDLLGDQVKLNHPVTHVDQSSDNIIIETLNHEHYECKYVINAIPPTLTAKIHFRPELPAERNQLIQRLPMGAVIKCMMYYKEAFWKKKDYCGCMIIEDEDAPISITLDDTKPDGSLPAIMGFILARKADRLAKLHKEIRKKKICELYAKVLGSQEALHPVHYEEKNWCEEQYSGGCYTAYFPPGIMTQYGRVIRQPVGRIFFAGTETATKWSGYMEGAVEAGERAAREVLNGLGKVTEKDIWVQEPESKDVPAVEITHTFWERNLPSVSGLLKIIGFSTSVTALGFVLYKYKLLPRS
# Text: as §1
# To detect the activity of MAO, a luminescent method (MAO-Glo Assay kit, from Promega, Cat # V1401) was used. In this method, a MAO substrate (a derivative of beetle luciferin provided in the kit) is mixed with the compound to be tested (in this case, myosmine and control compounds). Then, the MAO enzymes (either A or B, purchased separately) are added to the mixture and incubated with the reaction for 1 hour at room temperature. The MAO enzymes, if not inhibited by the test compound, will convert the substrate into methyl ester luciferin. Finally, a luciferin detection reagent (provided by the kit) is added (20 minutes at room temperature) to stop the MAO reaction and convert methyl ester luciferin into D-luciferin. […] The luminescent signal is measured and recorded using a luminometer.
# Anatabine was obtained from Emerson Resources, Norristown, Pa.
# male-pattern baldness = experiment: Oral treatment of a person with male-pattern baldness (scalp photographs); format: in vivo, human; conditions: oral 60 mg/day, photographs after three weeks and 90 days of treatment (FIG. 3-5)
# Method: A person and approximately 75 kg in weight was experiencing male-pattern baldness. The individual was orally administered isomyosmine at a dosage of 60 mg/day over the course of three weeks. FIG. 3 is a photograph of the scalp of the individual before treatment. FIG. 4 is a photograph of the scalp of the individual after three weeks of treatment (and a haircut). FIG. 5 is a photograph of the scalp of the individual after 90 days of treatment.
compound,measurement,setting,value
"C1=NC(c2cccnc2)CC1 (stereo not shown) [isomyosmine, 3-(3,4-dihydro-2H-pyrrol-2-yl)-pyridine]","inhibiting the activity of MAO-B, comparison of curves",MAO-B,the most potent among the five alkaloids tested
same,inhibition at 2000 µM,"MAO-A; 2 mM concentration (2,000 micromolar), read-out: inhibition of the enzymatic activity of MAO-A",~50%
same,"inhibiting the enzymatic activity of MAO-A, comparison of curves","MAO-A; compared with myosmine, anatabine, anabasine, nornicotine, clorgyline positive control",the most potent of the five
same,hair growth on the scalp,male-pattern baldness,"significant new growth of healthy, dark-colored hair on the scalp"
